Assay results from patent US20250346575A1, “ISOINDOLINONE DERIVATIVE HAVING GLUTARIMIDE MOTHER NUCLEUS, AND USE THEREOF” (KOREA RESEARCH INSTITUTE OF CHEMICAL TECHNOLOGY, priority 2021, published 2025).

System: Cancer cells (KG-1)
Test: Cytotoxicity assay, WST-1, KG-1
Assay type: cell-based
Details: for IC50: Homo sapiens, KG-1 cells, 72 hours, WST-1; for cytotoxic activity against KG-1 and NCI-H1155 cancer cells (in words): R1 bicyclic heteroaryl compared to monocyclic aryl (comparative substance) or heteroaryl (Compounds 37 and 38); for activity (in words): monocyclic heteroaryl R1 and aryl R2 compared to bicyclic heteroaryl R1 (Compounds 8, 9, and 26)
Protocol: To evaluate the effect of the compounds of the present disclosure on cancer cells, a cytotoxicity assay was conducted as follows.
Cancer cells (KG-1) were seeded at a concentration of 10,000 cells per well into a 96-well plate. Then, the cells were treated with predetermined concentrations of compounds of the Examples and comparative substances (comparative compounds 1, 2, 3). After 72 hours, the cells were incubated with WST-1 reagent for one hour. Then, absorbance was measured at 450 nm using a spectramax spectrophotometer to assess the degree of cancer cell apoptosis. The IC50 (μM) values were calculated using the measured values with the GraphPad Prism program and the measurements are summarized in Table 1.

SMILES: O=C1CCC(N2Cc3cc(CNC(=O)c4cc5ccc(Cl)cc5[nH]4)ccc3C2=O)C(=O)N1 (stereo not drawn) [Compound 9, 6-chloro-N-((2-(2,6-dioxopiperidin-3-yl)-1-oxoisoindolin-5-yl)methyl)-1H-indole-2-carboxamide]
- IC50: 0.01 to 1 µM

SMILES: O=C1CCC(N2Cc3cc(CNC(=O)c4n[nH]c5cc(Cl)ccc45)ccc3C2=O)C(=O)N1 (stereo not drawn) [Compound 1, 6-Chloro-N-((2-(2,6-dioxopiperidin-3-yl)-1-oxoisoindolin-5-yl)methyl)-1H-indazole-3-carboxamide]
- IC50: 0.0001 to 0.01 µM

SMILES: O=C1CCC(N2Cc3cc(CNC(=O)c4c[nH]c5ccc(Cl)cc45)ccc3C2=O)C(=O)N1 (stereo not drawn) [Compound 7, 5-Chloro-N-((2-(2,6-dioxopiperidin-3-yl)-1-oxoisoindolin-5-yl)methyl)-1H-indole-3-carboxamide]
- IC50: 0.01 to 1 µM
- cytotoxic activity against KG-1 and NCI-H1155 cancer cells (in words): more potent cytotoxic activity

SMILES: O=C1CCC(N2Cc3cc(CNC(=O)c4ccc5cc(Cl)ccc5n4)ccc3C2=O)C(=O)N1 (stereo not drawn) [Comparative Compound 3, 6-Chloro-N-((2-(2,6-dioxopiperidin-3-yl)-1-oxoisoindolin-5-yl)methyl)quinoline-2-carboxamide, reference compound]
- IC50: 10 to 50 µM

SMILES: Cc1c(C(=O)NCc2ccc3c(c2)CN(C2CCC(=O)NC2=O)C3=O)nn(CC(C)C)c1-c1cccc(Cl)c1 (stereo not drawn) [Compound 41, 5-(3-Chlorophenyl)-N-((2-(2,6-dioxopiperidin-3-yl)-1-oxoisoindolin-5-yl)methyl)-1-isobutyl-4-methyl-1H-pyrazole-3-carboxamide]
- IC50: 0.0001 to 0.01 µM

SMILES: O=C1CCC(N2Cc3cc(CNC(=O)c4cc(-c5ccc(Cl)cc5)on4)ccc3C2=O)C(=O)N1 (stereo not drawn) [Compound 11, 5-(4-Chlorophenyl)-N-((2-(2,6-dioxopiperidin-3-yl)-1-oxoisoindolin-5-yl)methyl)isoxazole-3-carboxamide]
- IC50: 0.0001 to 0.01 µM

SMILES: Cc1c(C(=O)NCc2ccc3c(c2)CN(C2CCC(=O)NC2=O)C3=O)n[nH]c1-c1ccccc1 (stereo not drawn) [Compound 17, N-((2-(2,6-Dioxopiperidin-3-yl)-1-oxoisoindolin-5-yl)methyl)-4-methyl-5-phenyl-1H-pyrazole-3-carboxamide]
- IC50: 0.0001 to 0.01 µM
- activity (in words): significantly more potent activity

SMILES: O=C1CCC(N2Cc3cc(CNC(=O)c4nc5ccc(Cl)cc5s4)ccc3C2=O)C(=O)N1 (stereo not drawn) [Compound 26, 6-Chloro-N-((2-(2,6-dioxopiperidin-3-yl)-1-oxoisoindolin-5-yl)methyl)benzo[d]thiazole-2-carboxamide]
- IC50: 0.01 to 1 µM

SMILES: O=C1CCC(N2Cc3cc(CNC(=O)C4(c5ccccc5)CCCC4)ccc3C2=O)C(=O)N1 (stereo not drawn) [Compound 54, N-((2-(2,6-Dioxopiperidin-3-yl)-1-oxoisoindolin-5-yl)methyl)-1-phenylcyclopentane-1-carboxamide]
- IC50: 10 to 50 µM

SMILES: Cc1c(C(=O)NCc2ccc3c(c2)CN(C2CCC(=O)NC2=O)C3=O)nn(Cc2ccc(F)cc2)c1-c1cccc(Cl)c1 (stereo not drawn) [Compound 43]
- IC50: 0.0001 to 0.01 µM

SMILES: O=C1CCC(N2Cc3cc(CNC(=O)c4cc(-c5ccc(Cl)cc5Cl)[nH]n4)ccc3C2=O)C(=O)N1 (stereo not drawn) [Compound 25, 5-(2,4-Dichlorophenyl)-N-((2-(2,6-dioxopiperidin-3-yl)-1-oxoisoindolin-5-yl)methyl)-1H-pyrazole-3-carboxamide]
- IC50: 0.0001 to 0.01 µM

SMILES: O=C1CCC(N2Cc3cc(CNC(=O)c4ccccc4)ccc3C2=O)C(=O)N1 (stereo not drawn) [Comparative substance, reference compound]
- IC50: 10 to 50 µM

SMILES: Cn1cc(Br)cc1C(=O)NCc1ccc2c(c1)CN(C1CCC(=O)NC1=O)C2=O (stereo not drawn) [Compound 38, 4-Bromo-N-((2-(2,6-dioxopiperidin-3-yl)-1-oxoisoindolin-5-yl)methyl)-1-methyl-1H-pyrrole-2-carboxamide]
- IC50: 1 to 10 µM

SMILES: Cn1cc(-c2ccccc2)cc1C(=O)NCc1ccc2c(c1)CN(C1CCC(=O)NC1=O)C2=O (stereo not drawn) [Compound 39, N-((2-(2,6-Dioxopiperidin-3-yl)-1-oxoisoindolin-5-yl)methyl)-1-methyl-4-phenyl-1H-pyrrole-2-carboxamide]
- IC50: 0.0001 to 0.01 µM
- activity (in words): significantly more potent activity

SMILES: Cn1cc(-c2cccc(Cl)c2)cc1C(=O)NCc1ccc2c(c1)CN(C1CCC(=O)NC1=O)C2=O (stereo not drawn) [Compound 40, 4-(3-Chlorophenyl)-N-((2-(2,6-dioxopiperidin-3-yl)-1-oxoisoindolin-5-yl)methyl)-1-methyl-1H-pyrrole-2-carboxamide]
- IC50: 0.0001 to 0.01 µM
- activity (in words): significantly more potent activity

SMILES: O=C1CCC(N2Cc3cc(CNC(=O)c4cccc(-c5ccccc5)c4)ccc3C2=O)C(=O)N1 (stereo not drawn) [Compound 30, N-((2-(2,6-Dioxopiperidin-3-yl)-1-oxoisoindolin-5-yl)methyl)-[1,1′-biphenyl]-3-carboxamide]
- IC50: 10 to 50 µM

SMILES: Cc1ccnc(C(=O)NCc2ccc3c(c2)CN(C2CCC(=O)NC2=O)C3=O)c1 (stereo not drawn) [Compound 31, N-((2-(2,6-Dioxopiperidin-3-yl)-1-oxoisoindolin-5-yl)methyl)-4-methylpicolinamide]
- IC50: 10 to 50 µM

SMILES: O=C1CCC(N2Cc3cc(CNC(=O)c4cc(-c5cccc(Cl)c5)c[nH]4)ccc3C2=O)C(=O)N1 (stereo not drawn) [Compound 14, 4-(3-Chlorophenyl)-N-((2-(2,6-dioxopiperidin-3-yl)-1-oxoisoindolin-5-yl)methyl)-1H-pyrrole-2-carboxamide]
- IC50: 0.0001 to 0.01 µM

SMILES: Cc1c(C(=O)NCc2ccc3c(c2)CN(C2CCC(=O)NC2=O)C3=O)nn(-c2ccccc2)c1-c1cccc(Cl)c1 (stereo not drawn) [Compound 42, 5-(3-chlorophenyl)-N-((2-(2,6-dioxopiperidin-3-yl)-1-oxoisoindolin-5-yl)methyl)-4-methyl-1-phenyl-1H-pyrazole-3-carboxamide]
- IC50: 0.0001 to 0.01 µM

SMILES: O=C1CCC(N2Cc3cc(CNC(=O)c4cc(-c5cccc(Cl)c5)n[nH]4)ccc3C2=O)C(=O)N1 (stereo not drawn) [Compound 5, 3-(3-Chlorophenyl)-N-((2-(2,6-dioxopiperidin-3-yl)-1-oxoisoindolin-5-yl)methyl)-1H-pyrazole-5-carboxamide]
- IC50: 0.0001 to 0.01 µM

SMILES: O=C1CCC(N2Cc3cc(CNC(=O)c4cc(-c5ccccc5)c(Cl)cn4)ccc3C2=O)C(=O)N1 (stereo not drawn) [Compound 46, 5-Chloro-N-((2-(2,6-dioxopiperidin-3-yl)-1-oxoisoindolin-5-yl)methyl)-4-phenylpicolinamide]
- IC50: 0.0001 to 0.01 µM

SMILES: O=C1CCC(N2Cc3cc(CNC(=O)c4nc5cc(Cl)c(Cl)cc5[nH]4)ccc3C2=O)C(=O)N1 (stereo not drawn) [Compound 16, 5,6-dichloro-N-((2-(2,6-dioxopiperidin-3-yl)-1-oxoisoindolin-5-yl)methyl)-1H-benzo[d]imidazole-2-carboxamide]
- IC50: 0.01 to 1 µM

SMILES: O=C1CCC(N2Cc3cc(CNC(=O)c4cc(-c5ccc(Cl)cc5)n[nH]4)ccc3C2=O)C(=O)N1 (stereo not drawn) [Compound 2, 3-(4-Chlorophenyl)-N-((2-(2,6-dioxopiperidin-3-yl)-1-oxoisoindolin-5-yl)methyl)-1H-pyrazole-5-carboxamide]
- IC50: 0.0001 to 0.01 µM

SMILES: O=C1CCC(N2Cc3cc(CNC(=O)c4ccccc4-c4ccccc4)ccc3C2=O)C(=O)N1 (stereo not drawn) [Compound 52, N-((2-(2,6-Dioxopiperidin-3-yl)-1-oxoisoindolin-5-yl)methyl)-[1,1′-biphenyl]-2-carboxamide]
- IC50: 10 to 50 µM

SMILES: O=C1CCC(N2Cc3cc(CNC(=O)c4nc5cc(Cl)ccc5[nH]4)ccc3C2=O)C(=O)N1 (stereo not drawn) [Compound 3, 5-Chloro-N-((2-(2,6-dioxopiperidin-3-yl)-1-oxoisoindolin-5-yl)methyl)-1H-benzo[d]imidazole-2-carboxamide]
- cytotoxic activity against KG-1 and NCI-H1155 cancer cells (in words): more potent cytotoxic activity

SMILES: O=C1CCC(N2Cc3cc(CNC(=O)C4CCN(c5ccccc5)C4=O)ccc3C2=O)C(=O)N1 (stereo not drawn) [Compound 55, N-((2-(2,6-Dioxopiperidin-3-yl)-1-oxoisoindolin-5-yl)methyl)-2-oxo-1-phenylpyrrolidine-3-carboxamide]
- IC50: 1 to 10 µM

SMILES: O=C1CCC(N2Cc3cc(CNC(=O)C4(c5ccc(Cl)cc5)CCCC4)ccc3C2=O)C(=O)N1 (stereo not drawn) [Compound 53, 1-(4-Chlorophenyl)-N-((2-(2,6-dioxopiperidin-3-yl)-1-oxoisoindolin-5-yl)methyl)cyclopentane-1-carboxamide]
- IC50: 10 to 50 µM

SMILES: O=C1CCC(N2Cc3cc(CNC(=O)c4cc5ccccc5cn4)ccc3C2=O)C(=O)N1 (stereo not drawn) [Comparative Compound 1, N-((2-(2,6-Dioxopiperidin-3-yl)-1-oxoisoindolin-5-yl)methyl)isoquinoline-3-carboxamide, reference compound]
- IC50: 10 to 50 µM

SMILES: O=C1CCC(N2Cc3cc(CNC(=O)c4n[nH]c(-c5cccc(Cl)c5)c4Br)ccc3C2=O)C(=O)N1 (stereo not drawn) [Compound 27, 4-Bromo-3-(3-chlorophenyl)-N-((2-(2,6-dioxopiperidin-3-yl)-1-oxoisoindolin-5-yl)methyl)-1H-pyrazole-5-carboxamide]
- IC50: 0.0001 to 0.01 µM

SMILES: Cc1ccc(-c2cc(C(=O)NCc3ccc4c(c3)CN(C3CCC(=O)NC3=O)C4=O)n[nH]2)c(C)c1 (stereo not drawn) [Compound 29, 5-(2,4-Dimethylphenyl)-N-((2-(2,6-dioxopiperidin-3-yl)-1-oxoisoindolin-5-yl)methyl)-1H-pyrazole-3-carboxamide]
- IC50: 0.0001 to 0.01 µM

SMILES: O=C1CCC(N2Cc3cc(CNC(=O)c4cc(-c5ccc(Cl)cc5)ccn4)ccc3C2=O)C(=O)N1 (stereo not drawn) [Compound 18, 4-(4-chlorophenyl)-N-((2-(2,6-dioxopiperidin-3-yl)-1-oxoisoindolin-5-yl)methyl)picolinamide]
- IC50: 0.0001 to 0.01 µM

SMILES: O=C1CCC(N2Cc3cc(CNC(=O)c4cc(-c5cc(Cl)ccc5Cl)[nH]n4)ccc3C2=O)C(=O)N1 (stereo not drawn) [Compound 28, 5-(2,5-Dichlorophenyl)-N-((2-(2,6-dioxopiperidin-3-yl)-1-oxoisoindolin-5-yl)methyl)-1H-pyrazole-3-carboxamide]
- IC50: 0.0001 to 0.01 µM
